Key:
[1] = system: VEGF induced increases in intracellular calcium levels in HUVEC (human umbilical vein endothelial cells); assay: VEGF Stimulated Ca++ signal assay (FLIPR); type: cell-based; conditions: VEGF 5 ng/mL; for IC50: 0.01 to 10.0 μM; for inhibition at 10 µM: 30 min pre-incubation
Description: VEGF Stimulated Ca^++ Signal in vitro
Automated FLIPR (Fluorometric Imaging Plate Reader) technology was used to screen for inhibitors of VEGF induced increases in intracellular calcium levels in fluorescent dye loaded endothelial cells. HUVEC (human umbilical vein endothelial cells) (Clonetics) were seeded in 96-well fibronectin coated black-walled plates overnight @ 37° C./5%CO2. Cells were loaded with calcium indicator Fluo-4 for 45 minutes at 37° C. Cells were washed 4 times (Original Cell Wash, Labsystems) to remove extracellular dye. Test compounds were reconstituted in 100% DMSO and added to the cells to give a final DMSO concentration of 0.1%. For screening, cells were pre-incubated with test agents for 30 minutes, at a single concentration (10 μM) or at concentrations ranging from 0.01 to 10.0 μM followed by VEGF stimulation (5 ng/mL). Changes in fluorescence at 516 nm were measured simultaneously in all 96 wells using a cooled CCD camera. Data were generated by determining max-min fluorescence levels for unstimulated, stimulated, and drug treated samples. IC50 values for test compounds were calculated from % inhibition of VEGF stimulated responses in the absence of inhibitor.

[2] = target: T1, cytoplasmic domain of the human VEGF receptor (VEGFR-2) (Homo sapiens, UniProt P35968); assay: KDR Assay; type: biochemical; conditions: His-VEGFR-2, 3.6 μM ATP, poly-Glu-Tyr (4:1)
T1 construct: The cytoplasmic domain of the human VEGF receptor (VEGFR-2) was expressed as a Histidine-tagged fusion protein; His tag (Histidine-tagged fusion); made in house; host or cells: insect cells (engineered baculovirus)
Description: The cytoplasmic domain of the human VEGF receptor (VEGFR-2) was expressed as a Histidine-tagged fusion protein following infection of insect cells using an engineered baculovirus. His-VEGFR-2 was purified to homogeneity, as determined by SDS-PAGE, using nickel resin chromatography. Kinase assays were performed in 96 well microtiter plates that were coated overnight with 30 μg of poly-Glu-Tyr (4:1) in 10 mM Phosphate Buffered Saline (PBS), pH 7.2-7.4. The plates were incubated with 1% BSA and then washed four times with PBS prior to starting the reaction. Reactions were carried out in 120 μL reaction volumes containing 3.6 μM ATP in kinase buffer (50 mM Hepes buffer pH 7.4, 20 mM MgCl2, 0.1 mM MnCl2 and 0.2 mM Na3VO4). Test compounds were reconstituted in 100% DMSO and added to the reaction to give a final DMSO concentration of 5%. Reactions were initiated by the addition 0.5 ng of purified protein. Following a ten minute incubation at 25° C., the reactions were washed four times with PBS containing 0.05% Tween-20. 100 μl of a monoclonal anti-phosphotyrosine antibody-peroxidase conjugate was diluted 1:10000 in PBS-Tween-20 and added to the wells for 30 minutes. Following four washes with PBS-Tween-20, 100 μl of 0-Phenylenediamine Dihydrochloride in Phosphate-citrate buffer, containing urea hydrogen peroxide, was added to the wells for 7 minutes as a colorimetric substrate for the peroxidase. The reaction was terminated by the addition of 100 μl of 2.5N H2SO4 to each well and read using a microplate ELISA reader set at 492 nm. IC50 values for compound inhibition were calculated directly from graphs of optical density (arbitrary units) versus compound concentration following subtraction of blank values.

[3] = system: VEGF-induced EBD extravasation; assay: VEGF-induced Dermal Extravasation in Guinea Pig (Miles Assay); type: in vivo; conditions: for in-vivo activity (Miles Assay, Table 3): oral administration; for Miles Assay % inhibition: single oral dose 75 mg/kg, vehicle PEG400
Description: VEGF-induced Dermal Extravasation in Guinea Pig (Miles Assay). Male Hartley guinea pigs (300-600 g) were anesthetized with isofluorane, sheared, and given a single oral dose of drug or the respective vehicle. Ten minutes prior to the end of drug treatment, guinea pigs were anesthetized with isofluorane, and 0.5% Evans blue dye (EBD) in PBS (13-15 mg/kg dose of EBD) was injected intravenously. After 5 minutes, triplicate intradermal injections of 100 ng rhVEGF165 in 100 μl PBS and of 100 μl PBS alone were administered on the flank. After 20 minutes, each animal was euthanized with Pentosol, and the skin containing the intradermal injection sites was removed for image analysis.
Using an analog video camera coupled to a PC, an image of each trans-illuminated skin sample was captured, and the integrated optical density of each injection site was measured using ImagePro 4. For each skin sample, the difference between the mean optical density of the VEGF sites and mean optical density of the PBS sites is the measure of VEGF-induced EBD extravasation in that animal. These measured values were averaged per study group to determine the mean VEGF-induced EBD extravasation for each experimental condition, and the group means were then compared to assess inhibition of VEGF-induced EBD extravasation in the drug-treated groups relative to the vehicle-treated controls.

T1 sequence (P35968 786-1356 limits assumed): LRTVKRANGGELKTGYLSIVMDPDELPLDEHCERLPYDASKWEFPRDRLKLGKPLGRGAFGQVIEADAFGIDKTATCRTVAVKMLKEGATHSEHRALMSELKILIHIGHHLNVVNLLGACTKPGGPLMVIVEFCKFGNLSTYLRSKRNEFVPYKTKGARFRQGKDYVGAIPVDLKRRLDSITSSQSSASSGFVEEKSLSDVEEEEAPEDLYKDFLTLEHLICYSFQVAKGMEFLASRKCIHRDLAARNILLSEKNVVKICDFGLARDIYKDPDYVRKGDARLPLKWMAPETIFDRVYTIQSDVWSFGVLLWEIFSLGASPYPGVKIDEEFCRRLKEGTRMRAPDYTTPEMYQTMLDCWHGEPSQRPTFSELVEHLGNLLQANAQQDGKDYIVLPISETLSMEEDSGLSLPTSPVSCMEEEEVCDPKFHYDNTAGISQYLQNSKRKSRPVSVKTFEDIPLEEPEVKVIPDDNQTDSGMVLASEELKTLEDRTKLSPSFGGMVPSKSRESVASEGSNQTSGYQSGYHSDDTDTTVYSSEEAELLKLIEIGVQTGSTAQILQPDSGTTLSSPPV

IC50 [2] [nM] | Compound | IC50 [1] [nM] | inhibition at 10 µM ([1]; Homo sapiens) [%] | IC50 ([1]; Homo sapiens) [nM] | in-vivo activity (Miles Assay, Table 3) [3] | Miles Assay % inhibition [3] [%]
330 | Cc1cc(NC=C2C(=O)Nc3ccc(F)cc32)n[nH]1 [Example 26, 5-Fluoro-3-[(5-methyl-1H-pyrazol-3-ylamino)-methylene]-1,3-dihydro-indol-2-one] | 520 | 97.1 | ≤ 1000 | significant in-vivo activity | 100
540 | Cc1cccc2c1C(=CNc1cc(-c3ccco3)[nH]n1)C(=O)N2 [Example 7, 3-[(5-Furan-2-yl-1H-pyrazol-3-ylamino)-methylene]-4-methyl-1,3-dihydro-indol-2-one] | 920 | 98.3 | ≤ 1000 |  | 
2220 | O=C1Nc2cc(F)ccc2C1=CNc1cc[nH]n1 [Example 53, 6-Fluoro-3-[(1H-pyrazol-3-ylamino)-methylene]-1,3-dihydro-indol-2-one] |  |  | 1380 |  | 
15700 | Cc1oc(C(C)(C)C)cc1-c1cc(NC=C2C(=O)Nc3ccc(F)cc32)[nH]n1 [Example 28, 3-{[5-(5-tert-Butyl-2-methyl-furan-3-yl)-2H-pyrazol-3-ylamino]-methylene}-5-fluoro-1,3-dihydro-indol-2-one] |  | 43.9 |  |  | 
780 | CC(C)(C)c1cc(NC=C2C(=O)Nc3ccccc32)no1 [Example 41, 3-[(5-tert-Butyl-isoxazol-3-ylamino)-methylene]-1,3-dihydro-indol-2-one] |  | 96.5 | 10000 |  | 
82300 | Cc1oc(C(C)(C)C)cc1-c1cc(NC=C2C(=O)Nc3cc(F)ccc32)[nH]n1 [Example 52, 3-{[5-(5-tert-Butyl-2-methyl-furan-3-yl)-2H-pyrazol-3-ylamino]-methylene}-6-fluoro-1,3-dihydro-indol-2-one] |  |  | 3400 |  | 
980 | O=C1Nc2cc(F)ccc2C1=CNc1cc(-c2ccco2)[nH]n1 [Example 50, 6-Fluoro-3-[(5-furan-2-yl-1H-pyrazol-3-ylamino)-methylene]-1,3-dihydro-indol-2-one] | 590 |  | ≤ 1000 |  | 
9540 | Cc1cc(C)cc(-c2cc(NC=C3C(=O)Nc4ccccc43)[nH]n2)c1 [Example 32, 3-{[5-(3,5-Dimethyl-phenyl)2H-pyrazol-3-ylamino]-methylene}-1,3-dihydro-indol-2-one] |  | 46.1 |  |  | 
3490 | CN(C)c1ccc(-c2cc(NC=C3C(=O)Nc4ccccc43)[nH]n2)cc1 [Example 35, 3-{[5-(4-Dimethylamino-phenyl)-2H-pyrazol-3-ylamino]-methylene}-1,3-dihydro-indol-2-one] |  | 93 | 3060 |  | 
2510 | Cc1oc(C(C)(C)C)cc1-c1cc(NC=C2C(=O)Nc3ccccc32)n(C)n1 [Example 47, 3-{[5-(5tert-Butyl-2-methyl-furan-3-yl)-2-methyl-2H-pyrazol-3-ylamino]-methylene}-1,3-dihydro-indol-2-one] |  | 79.7 | 5920 |  | 
530 | O=C1Nc2ccc(F)cc2C1=CNc1cc(-c2ccco2)[nH]n1 [Example 27, 5-Fluoro-3-[(5-furan-2-yl-1H-pyrazol-3-ylamino)-methylene]-1,3-dihydro-indol-2-one] | 1050 | 98.6 | ≤ 1000 |  | 
11600 | CCn1nccc1NC=C1C(=O)Nc2ccccc21 [Example 46, 3-[(2-Ethyl-2H-pyrazol-3-ylamino)-methylene]-1,3-dihydro-indol-2-one] |  | 42.4 |  |  | 
1390 | Cc1cc(NC=C2C(=O)Nc3cc(F)ccc32)no1 [Example 48, 6-Fluoro-3-[(5-methyl-isoxazol-3-ylamino)-methylene]-1,3-dihydro-indol-2-one] |  |  | 960 |  | 
9900 | CCOc1ccc(-c2cc(NC=C3C(=O)Nc4ccccc43)[nH]n2)cc1 [Example 38, 3-{[5-(4-Ethoxy-phenyl)-2H-pyrazol-3-ylamino]-methylene}-1,3-dihydro-indol-2-one] |  | 70 | 6750 |  | 
1030 | O=C1Nc2ccc(Cl)cc2C1=CNc1cc(-c2ccco2)[nH]n1 [Example 10, 3-[(5-Furan-2-yl-1H-pyrazol-3-ylamino)-methylene]-5-chloro-1,3-dihydro-indol-2-one] |  | 76 | 3230 |  | 
1130 | O=C1Nc2ccc(Cl)cc2C1=CNc1cc[nH]n1 [Example 9, 5-Chloro-3-[(1H-pyrazol-3-ylamino)-methylene]-1,3-dihydro-indol-2-one] |  | 90 | 6140 |  | 
1910 | Cc1onc(NC=C2C(=O)Nc3ccccc32)c1Br [Example 42, 3-[(4-Bromo-5-methyl-isoxazol-3-ylamino)-methylene]-1,3-dihydro-indol-2-one] |  | 0.3 |  |  | 
12700 | COc1ccccc1-c1cc(NC=C2C(=O)Nc3ccccc32)[nH]n1 [Example 37, 3-{[5-(2-Methoxy-phenyl)-2H-pyrazol-3-ylamino]-methylene}-1,3-dihydro-indol-2-one] |  | 13.6 |  |  | 
850 | O=C1Nc2ccccc2C1=CNc1cc(-c2ccco2)[nH]n1 [Example 4, 3-[(5-Furan-2-yl-1H-pyrazol-3-ylamino)-methylene]-1,3-dihydro-indol-2-one] | 700 | 92.6 | ≤ 1000 |  | 
500 | Cc1cccc2c1C(=CNc1cc[nH]n1)C(=O)N2 [Example 6, 4-Methyl-3-[(1H-pyrazol-3-ylamino)-methylene]-1,3-dihydro-indol-2-one] | 1070 | 97.6 | ≤ 1000 | significant in-vivo activity | 83
650 | Cc1cc(NC=C2C(=O)Nc3ccccc32)no1 [Example 44, 3-[(5-Methyl-isoxazol-3-ylamino)-methylene]-1,3-dihydro-indol-2-one] |  | 97 | 2550 |  | 

From patent publication US6559173B1, “3-(heteroarylamino)methylene-1,3-dihydro-2H-indol-2-ones as kinase inhibitors” (Allergan, Inc., priority 2001, dated 2003)
